Where a name gives a salt, the structure may show the parent alone.
How the values were obtained:
[1] = test system: LPS induced THP-1 macrophages; assay: In vitro THP-1 assay, model of cytokine inhibition; assay type: cell-based, human; conditions: differentiated THP-1 cells, 60 min pre-incubation, LPS 4-48 h, ELISA, versus vehicle (DMSO)
Protocol: The human THP-1 cell line can be utilized as an in vitro model of cytokine expression as mediated by Lipopolysaccharide (LPS) or Tumor Necrosis Factorα [TNFα].
Monocytic THP-1 cells (ATCC; TIB-202) can be differentiated into macrophage-like cells expressing pro-inflammatory cytokines like TNFα, IL6 and IL1β upon induction with LPS or by TNFα (autocrine induction) itself.
THP-1 cells are grown in modified RPMI-1640 medium (ATCC, Cat. No. 30-2001) supplemented with 10% FCS and 1% Pen/Strep. For cytokine inhibition assays, cells are seeded at a density of 5×10^5 cells/ml into 6-well plates in standard growth medium supplemented with 100 ng/ml PMA (Sigma, P1585) to induce differentiation into macrophage-like cells. After 24 hours, the medium is replaced with standard growth medium (without PMA) and the cells are incubated for another 48 hours to complete differentiation.
After 72 h of differentiation, the medium is replaced with serum free growth medium, and CDK-inhibiting compounds as well as reference compounds such as positive and negative controls, each dissolved in DMSO are added at concentrations ranging from 0.5 to 5 μM (final concentration of DMSO in the well is 0.1%). Cells are incubated for 60 min with compounds prior to stimulation with 100 ng/ml LPS (Sigma, L2630) for another 4-48 hours. Supernatants are collected and assayed immediately for cytokine expression, e.g. for TNFα, IL-6 and IL-1b using commercially available sandwich ELISA assays (eBioscience, Cat. No 88-7346, 88-7066, 88-7010) or kept frozen at […] until evaluation.
Concentrations of TNFα, IL6 and IL1β within the cell culture supernatants are measured by using commercial ELISA Kits (eBioscience) according to the manufacturers instructions.
CDK-inhibitory compounds #1A, 16A, 20A, and 25A were administered to differentiated THP-1 cells in triplicates as described above (see section 2.). After 60 min of pre-incubation with test or reference compound (SB203580, a p38 inhibitor and BMS345541, an IKK-inhibitor) alone, cells were stimulated with LPS. After incubation for 4-48 h, supernatants were collected and ELISA based determinations of cytokine supernatant concentrations were performed as described in section 3, supra.

| melting point [°C] | SMILES | other results |
| --- | --- | --- |
| 272 | COc1ccc(F)cc1-c1cc(NC(=O)[C@H]2CCCC[C@H]2N)ncn1.Cl [Example 46, (1S,2R)-2-amino-N-(6-(5-fluoro-2-methoxyphenyl)pyrimidin-4-yl)cyclohexanecarboxamide*HCl] | – |
| 236 | CC(C)Oc1ccc(F)cc1-c1cc(NC(=O)C2CCC(=O)NC2)ncn1 (centres unmarked) [Example 26, N-(6-(5-fluoro-2-isopropoxyphenyl)pyrimidin-4-yl)-6-oxopiperidine-3-carboxamide] | – |
| 163 to 165 | COc1ccccc1-c1cc(NC(=O)[C@H]2CCCNC2)ncn1 [Compound 17A, (S)-Piperidine-3-carboxylic acid [6-(2-methoxy-phenyl)-pyrimidin-4-yl]-amide] | – |
| 208 | CCOc1ccc(F)cc1-c1cc(NC(=O)C2CCC(=O)NC2)ncn1 (centres unmarked) [Example 16, N-(6-(2-ethoxy-5-fluorophenyl)pyrimidin-4-yl)-6-oxopiperidine-3-carboxamide] | – |
| 222 | COc1ccc(F)cc1-c1cc(NC(=O)C2CNC(=O)C2)ncn1 (centres unmarked) [Example 18, N-(6-(5-fluoro-2-methoxyphenyl)pyrimidin-4-yl)-5-oxopyrrolidine-3-carboxamide] | – |
| 225 | COc1ccc(F)cc1-c1cc(NC(=O)C2CCNC(=O)C2)ncn1 (centres unmarked) [Example 40, N-(6-(5-fluoro-2-methoxyphenyl)pyrimidin-4-yl)-2-oxopiperidine-4-carboxamide] | – |
| 148 | COc1cc(F)ccc1-c1cc(NC(=O)C2CCC(=O)NC2)ncn1 (centres unmarked) [Example 14, N-(6-(4-fluoro-2-methoxyphenyl)pyrimidin-4-yl)-6-oxopiperidine-3-carboxamide] | – |
| 162 | COc1ccc(F)cc1-c1cc(NC(=O)C2CCC(N)CC2)ncn1 (centres unmarked) (as salt: TFA) [Example 38, 4-amino-N-(6-(5-fluoro-2-methoxyphenyl)pyrimidin-4-yl)cyclohexanecarboxamide*TFA] | – |
| 180 | COc1ccc(F)cc1-c1cc(NC(=O)C2CCCNC2=O)ncn1 (centres unmarked) [Example 41, N-(6-(5-fluoro-2-methoxyphenyl)pyrimidin-4-yl)-2-oxopiperidine-3-carboxamide] | – |
| 160 | COc1ccc(F)cc1-c1cc(NC(=O)C2CC(=O)NC(=O)C2)ncn1 [Example 19, N-(6-(5-fluoro-2-methoxyphenyl)pyrimidin-4-yl)-2,6-dioxopiperidine-4-carboxamide] | – |
| 122 | COc1ccc(F)cc1-c1cc(NC(=O)C2CCCCN2)ncn1 (centres unmarked) (as salt: TFA) [Example 37, N-(6-(5-fluoro-2-methoxyphenyl)pyrimidin-4-yl)piperidine-2-carboxamide*TFA] | – |
| 155 | COc1ccc(F)cc1-c1cc(NC(=O)C2CCOCC2)ncn1 [Example 39, N-(6-(5-fluoro-2-methoxyphenyl)pyrimidin-4-yl)-tetrahydro-2H-pyran-4-carboxamide] | – |
| 170 | COc1ccc(F)cc1-c1cc(NC(=O)c2cc(C)on2)ncn1 [Example 55, N-(6-(5-fluoro-2-methoxyphenyl)pyrimidin-4-yl)-5-methylisoxazole-3-carboxamide] | – |
| 190 | COc1ccc(F)cc1-c1cc(NC(=O)C2(C(N)=O)CC2)ncn1 [Example 10, N-(6-(5-fluoro-2-methoxyphenyl)pyrimidin-4-yl)cyclopropane-1,1-dicarboxamide] | – |
| 245 | COc1ccc(F)cc1-c1cc(NC(=O)C2CCC(=O)NC2)ncn1 (centres unmarked) [Example 17, N-(6-(5-fluoro-2-methoxyphenyl)pyrimidin-4-yl)-6-oxopiperidine-3-carboxamide] | – |
| 210 to 213 | COc1ccccc1-c1cc(NC(=O)[C@@H]2CCCNC2)ncn1 [Compound 18A, (R)-Piperidine-3-carboxylic acid [6-(2-methoxy-phenyl)-pyrimidin-4-yl]-amide] | – |

Further lines, the compound ahead of its results:

| SMILES | melting point [°C] | other results |
| --- | --- | --- |
| COc1ccccc1-c1cc(NC(=O)C(C)(C)C)ncn1 [Compound 25A, N-[6-(2-methoxy-phenyl)-pyrimidin-4-yl]-2,2-dimethyl-propionamide] | – | IL6 protein concentration in the cell supernatant [1]: significant inhibitory effect; TNFα protein concentration in the cell supernatant [1]: significant inhibitory effect |
| CCc1cc(C(=O)Nc2cc(-c3cc(F)ccc3OC)ncn2)no1 [Example 58, 5-ethyl-N-(6-(5-fluoro-2-methoxyphenyl)pyrimidin-4-yl)isoxazole-3-carboxamide] | 175 | – |
| COc1ccccc1-c1cc(NC(=O)C2CCCNC2)nc(C)n1 (centres unmarked) [Compound 22A, piperidine-3-carboxylic acid [6-(2-methoxy-phenyl)-2-methyl-pyrimidin-4-yl]-amide] | 229 to 230 | – |
| CCOc1cc(F)ccc1-c1cc(NC(=O)C2CCC(=O)NC2)ncn1 (centres unmarked) [Example 24, N-(6-(2-ethoxy-4-fluorophenyl)pyrimidin-4-yl)-6-oxopiperidine-3-carboxamide] | 222 | – |
| COc1ccc(F)cc1-c1cc(NC(=O)c2cc(=O)[nH]c3ccccc23)ncn1 [Example 60, N-(6-(5-fluoro-2-methoxyphenyl)pyrimidin-4-yl)-1,2-dihydro-2-oxoquinoline-4-carboxamide] | 276 | – |
| COc1ccc(F)cc1-c1cc(NC(=O)Cc2cc(F)c(F)cc2F)ncn1 [Example 62, N-(6-(5-fluoro-2-methoxyphenyl)pyrimidin-4-yl)-2-(2,4,5-trifluorophenyl)acetamide] | 208 | – |
| COc1ccc(F)cc1-c1cc(NC(=O)C(=O)c2ccccc2)ncn1 [Example 61, N-(6-(5-fluoro-2-methoxyphenyl)pyrimidin-4-yl)-2-oxo-2-phenylacetamide] | 146 | – |
| CCCN1N=C(C(=O)Nc2cc(-c3cc(F)ccc3OC)ncn2)CCC1=O [Example 11, N-(6-(5-fluoro-2-methoxyphenyl)pyrimidin-4-yl)-1,4,5,6-tetrahydro-6-oxo-1-propylpyridazine-3-carboxamide] | 200 | – |
| CC(C)Oc1cc(F)ccc1-c1cc(NC(=O)C2CCC(=O)NC2)ncn1 (centres unmarked) [Example 25, N-(6-(4-fluoro-2-isopropoxyphenyl)pyrimidin-4-yl)-6-oxopiperidine-3-carboxamide] | 105 | – |
| CCOc1ccccc1-c1cc(NC(=O)C2CCC(=O)NC2)ncn1 (centres unmarked) [Example 15, N-(6-(2-ethoxyphenyl)pyrimidin-4-yl)-6-oxopiperidine-3-carboxamide] | 117 | – |
| COc1ccc(F)cc1-c1cc(NC(=O)c2cnn3cc(C)cnc23)ncn1 [Example 59, N-(6-(5-fluoro-2-methoxyphenyl)pyrimidin-4-yl)-6-methylpyrazolo[1,5-a]pyrimidine-3-carboxamide] | 265 | – |
| CCc1ccc(C(=O)Nc2cc(-c3cc(F)ccc3OC)ncn2)nc1 [Example 56, 5-ethyl-N-(6-(5-fluoro-2-methoxyphenyl)pyrimidin-4-yl)pyridine-2-carboxamide] | 176 | – |

Reference: patent US8716296B2 (Ingenium Pharmaceuticals GmbH, priority 2007, dated 2014)
